The ΔTm is the change in melting temperature against a reference sample.

The target in the first assay is T1, bovine GRK5 (Bos taurus, UniProt P43249).
T1 construct: when using full-length kinases as the receptor[37] instead of isolated kinase domains; made in house
T1 sequence (P43249 whole entry, the tested form may be a part): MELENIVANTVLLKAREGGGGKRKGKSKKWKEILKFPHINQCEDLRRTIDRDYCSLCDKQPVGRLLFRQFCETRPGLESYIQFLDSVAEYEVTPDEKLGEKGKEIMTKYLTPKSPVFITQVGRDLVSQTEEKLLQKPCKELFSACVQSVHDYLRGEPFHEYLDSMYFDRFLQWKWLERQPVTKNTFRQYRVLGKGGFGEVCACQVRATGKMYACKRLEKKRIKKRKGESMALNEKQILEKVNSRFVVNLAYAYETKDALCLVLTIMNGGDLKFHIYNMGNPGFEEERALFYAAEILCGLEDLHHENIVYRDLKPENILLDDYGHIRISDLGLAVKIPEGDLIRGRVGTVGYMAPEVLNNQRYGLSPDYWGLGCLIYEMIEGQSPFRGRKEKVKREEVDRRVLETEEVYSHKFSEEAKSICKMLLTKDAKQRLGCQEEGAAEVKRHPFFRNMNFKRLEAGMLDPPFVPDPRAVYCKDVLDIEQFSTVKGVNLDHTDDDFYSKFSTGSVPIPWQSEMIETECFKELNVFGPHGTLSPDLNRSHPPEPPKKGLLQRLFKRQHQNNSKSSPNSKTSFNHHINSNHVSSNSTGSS
The assay is described as follows: Primary DSF inhibitor screen, GRK5. The assay is classed as binding. The conditions noted are these: 10 μM compound, 2 μM kinase, relative to DMSO control.
`Nc1nc(Nc2ccc(S(N)(=O)=O)cc2)nn1C(=O)c1c(F)cccc1F` [Aurora/Cdk Inhibitor]: the “ΔTm, primary screen, GRK5” value was 5.41 °C.
`CC(C)(C)c1nc2c3ccc(F)cc3c3c(=O)[nH]ccc3c2[nH]1` [JAK Inhibitor I, 2-(1,1-Dimethylethyl)-9-fluoro-3,6-dihydro-7H-benz[h]-imidaz[4,5-f]isoquinolin-7-one]: the “ΔTm, primary screen, GRK5” value worked out at 8.13 °C.
The same measure, in the same setting: next, `O=C1NC(=NCc2cccs2)S/C1=C\c1ccc2ncccc2c1` [RO-3306]: 5.48 °C.
On to `COC(=O)[C@@]1(O)C[C@H]2O[C@]1(C)n1c3ccccc3c3c4c(c5c6ccccc6n2c5c31)C(=O)NC4` [K252a], for which the “ΔTm, primary screen, GRK5” value was found to be 9.89 °C.
On the same count and under the same terms, to `O=C1Nc2ccccc2/C1=C\c1cnc[nH]1` [(Z,E)-3-(Imidazol-4-ylmethylene)indolin-2-one] belongs 4.8 °C; to `Cl.Cn1cc(C2=C(c3c4n(c5ccccc35)CCC(CN)C4)C(=O)NC2=O)c2ccccc21` (centres unmarked) [BIM 10, Bisindolylmaleimide X, HCl], 6.19 °C.
Same read-out and setting: next, `O=C1Nc2ccccc2C1=Cc1c(Cl)[nH]c2ccccc12` [3-(2-Chloro-3-indolylmethylene)-1,3-dihydroindol-2-one]: 2.98 °C.
As for `Cc1cc(C=C2C(=O)C=CC2=O)cc(C)c1O` [TX-1918, 2-((3,5-dimethyl-4-hydroxyphenyl)-methylene)-4-cyclopentene-1,3-dione], the “ΔTm, primary screen, GRK5” value was 2.21 °C.
On the same count and under the same terms, to `O=C1NC(=O)/C(=C/c2ccc(-c3nc4ccccc4s3)o2)S1` [BAS 09687195] belongs 2.87 °C.
For `CS(=O)(=O)c1cccc(CNc2nc(Nc3ccc4c(c3)CCC(=O)N4)ncc2C(F)(F)F)c1` [PF 573228], the “ΔTm, primary screen, GRK5” value came out at 2.67 °C.
Still for that read-out and setting: to `O` [Water] belongs 2.01 °C; to `Cc1cncc2cccc(S(=O)(=O)N3CCCNC[C@@H]3C)c12` [H-1152, (S)-(+)-2-Methyl-1-[(4-methyl-5-isoquinolinyl)sulfonyl]homopiperazine], 5.95 °C; to IGF-1R Inhibitor II, 2.42 °C.
For `Nc1cc2ncnc(Nc3cccc(Br)c3)c2cc1N` [4-[(3-Bromophenyl)amino]-6,7-diaminoquinazoline], the “ΔTm, primary screen, GRK5” value turned out to be 6.16 °C.
The same measure, in the same setting: next, `CN(C)CCCn1cc(C2=C(c3c[nH]c4ccccc34)C(=O)NC2=O)c2ccccc21.Cl` [BIM I, 2-[1-(3-Dimethylaminopropyl)-1H-indol-3-yl]-3-(1H-indol-3-yl)maleimide, HCl]: 6.45 °C.
On the same count and under the same terms, to `NC1=NC(=O)C(=C2CCNC(=O)c3[nH]c(Br)cc32)N1` [10Z-Hymenialdisine, 4-(2-Amino-4-oxo-2-imidazolidin-5-ylidene)-2-bromo-4,5,6,7-tetrahydropyrrolo[2,3-c]azepin-8-one] belongs 4.5 °C; to `Cl.Cl.NCCNc1ncc(C(N)=O)c(Nc2cccc(C(F)(F)F)c2)n1` [Syk Inhibitor II], 2.43 °C.
The same measure, in the same setting: next, Cdk1/2 Inhibitor III: 3.6 °C; `Cn1cc(/C=C2\C(=O)Nc3ccc(S(N)(=O)=O)cc32)c2ccccc21` [Syk Inhibitor]: 3.6 °C.
For the compound `Brc1c(Br)c(Br)c2[nH]nnc2c1Br` [4,5,6,7-Tetrabromobenzo-triazole], the “ΔTm, primary screen, GRK5” value amounted to 8.22 °C.
On the same count and under the same terms, to `O=C1NC(=O)C(c2cn(CCCn3ccnc3)c3ccccc23)=C1Nc1ccccc1` [PKC beta inhibitor] belongs 3.13 °C; to `CC(C)n1cnc2c(Nc3cccc(Cl)c3)nc(NCCO)nc21` [Compound 52, 2-(2-Hydroxyethylamino)-6-(3-chloroanilino)-9-isopropylpurine], 5.53 °C.

The assay is the same for the next values; noted with them: 10 μM compound, 2 μM kinase, relative to DMSO control; read-out: ΔTm, primary screen, GRK5.
On to `Fc1cccc(COc2ccc(Nc3ncnc4sc(-c5ccco5)cc34)cc2Cl)c1` [GSK969786A], for which the thermal shift (ΔTm) at 10 µM worked out at 2.11 °C.
Still for that read-out and setting: next, `C[C@@H](Oc1cc(-n2cnc3ccc(OCC4CCN(C)CC4)cc32)sc1C(N)=O)c1ccccc1C(F)(F)F` [GSK326090A]: 2.06 °C; `NS(=O)(=O)c1ccc(NC=C2C(=O)Nc3ccc4ncsc4c32)cc1` [GW589933X]: 4.8 °C; `CC(C)=Cc1cccc2c1C(=NNc1ccc(S(N)(=O)=O)cc1)C(=O)N2` [GW396574X]: 2.08 °C.
On the same count and under the same terms, to `O=c1cc(-c2ccc(O)cc2)oc2cc(O)cc(O)c12` [Apigenin, 4',5,7-Trihydroxyflavone] belongs 2.9 °C; to `COc1ccc2c(c1)/C(=C/c1cnc[nH]1)C(=O)N2` [SU9516, 3-[1-(3H-Imidazol-4-yl)-meth-(Z)-ylidene]-5-methoxy-1,3-dihydro-indol-2-one], 3.59 °C.
Same read-out and setting: to `COC(=O)Nc1nc2ccc(Oc3ccc(NC(=O)Nc4cccc(Br)c4)cc3)cc2[nH]1` [GW694234A] belongs 4.08 °C; to `O=C1Nc2ccccc2/C1=C/Nc1ccc2[nH]c(=O)[nH]c2c1` [GW284408X], 2.4 °C.
As for `CCNC(=O)O[C@H]1CN[C@H](C#Cc2cc3ncnc(Nc4ccc(OCc5cccc(F)c5)c(Cl)c4)c3s2)C1` [GSK192082A], the ΔTm at 10 µM is 2.97 °C.
On the same count and under the same terms, next, `NS(=O)(=O)c1ccc(Nc2cc(-c3cccc(O)c3)n[nH]2)cc1` [GW831090X]: 2.96 °C; `O=S(=O)(CCNCc1ccc(-c2ccc3ncnc(Nc4ccc(OCc5cccc(F)c5)c(Cl)c4)c3c2)o1)c1ccccc1` [GW633459A]: 3.27 °C.
Same read-out and setting: next, `COC(=O)Nc1nc2ccc(Sc3ccc(NC(=O)Nc4cc(C(F)(F)F)ccc4F)cc3)cc2[nH]1` [GW607049C]: 3.59 °C.
On the same count and under the same terms, next, `CCS(=O)(=O)c1ccc(OC)c(Nc2ncc(-c3ccccc3Cl)o2)c1` [GW622055X]: 2.14 °C; `O=C(Nc1n[nH]c2nc(-c3ccco3)c(Br)cc12)C1CC1` [SB-739452]: 2.03 °C.
In the case of `COc1cc(C)c(N(C)C(=O)CN(C)C)cc1Nc1nc(Nc2cccc(F)c2C(N)=O)c2cc[nH]c2n1` [GSK2219385A], the ΔTm at 10 µM was 3.58 °C.
Turning to `Cc1cc(O)cc(C)c1/C=C/c1cncc(C(=O)OC(C)(C)C)c1` [GW439255X], the ΔTm at 10 µM was 2.66 °C.
Still for that read-out and setting: next, `NS(=O)(=O)c1ccc(NN=C2C(=O)Nc3ccc(C(=O)NCc4ccncc4)cc32)cc1` [GW300657X]: 3.89 °C; `CN1CC[C@H](c2c(O)cc(O)c3c(=O)cc(-c4ccccc4Cl)oc23)[C@H](O)C1` [Flavopiridol]: 4.13 °C; `Nc1nonc1-c1nc2cnccc2n1C1CC1` [SB-736302]: 2.86 °C.
For `CC1=C(C(=O)Nc2ccc3[nH]nc(C)c3c2)C(c2ccc(C(F)(F)F)cc2)CC(=O)N1` (centres unmarked) [GSK466314A], the shift in melting temperature (ΔTm) at 10 µM came to 3.54 °C.
The same measure, in the same setting: next, `CS(=O)(=O)CCNCc1ccc(-c2ccc3ncnc(Nc4ccc(OCc5ccccc5)c(Cl)c4)c3c2)o1` [GW574783B]: 4.25 °C.
The same measure, in the same setting: to `c1ccc(COc2ccc(Nc3ncnc4ccc(-c5ccco5)cc34)cc2)cc1` [GW284372X] belongs 3.6 °C; to `Cc1ccc(NC(=O)CC2CC2)cc1-c1ccc(C(=O)NCC2CC2)cc1` [GW796920X], 3.82 °C; to `Nc1nc(-c2ccc(F)cc2)c(-c2ccc3ncccc3n2)s1` [GW785804X], 3.16 °C.
Still for that read-out and setting: next, `CS(=O)(=O)CCNCc1coc(-c2ccc3ncnc(Nc4ccc(OCc5ccccc5)cc4)c3c2)c1` [GW566221A]: 2.58 °C; `CS(=O)(=O)CCNCc1ccc(-c2ccc3ncnc(Nc4ccc(OCc5ccccc5)c(Br)c4)c3c2)o1` [GW580496A]: 4.33 °C.
As for `NS(=O)(=O)c1ccc(N/N=C2\C(=O)Nc3ccc(C(=O)NCCc4c[nH]cn4)cc32)cc1` [GW300660X], the shift in melting temperature (ΔTm) at 10 µM amounted to 3.03 °C.
Still for that read-out and setting: to `O=C(Nc1ccc(Oc2ccc3nc(NC(=O)c4ccccc4)[nH]c3c2)cc1)Nc1cc(C(F)(F)F)ccc1F` [GW709042A] belongs 3.88 °C.
On the same count and under the same terms, next, `Nc1ncnc2occ(-c3ccc(NC(=O)Nc4cc(C(F)(F)F)ccc4F)cc3)c12` [GW770249X]: 3.19 °C; `Cn1cc(C2=C(c3ccc(Cl)cc3Cl)C(=O)NC2=O)c2ccccc21` [SB216763]: 2.78 °C; `COC(=O)Nc1nc2ccc(Oc3cccc(NC(=O)Nc4cc(C(F)(F)F)ccc4F)c3)cc2[nH]1` [GW659386A]: 2.51 °C.
The same measure, in the same setting: next, `O=C1Nc2ccccc2/C1=C1\CCc2cc(O)ccc21` [GR105659X]: 3.25 °C; `O=C(O)c1ccc2c3c1cccc3c(=O)n1c3ccccc3nc21` [STO-609]: 3.24 °C; `CCCN1CCC=C(c2ccc(Nc3nc(Nc4ccccc4C(N)=O)c4cc[nH]c4n3)c(C)c2)C1` [GSK994854A]: 4.92 °C.
As for `O=c1c(O)c(-c2ccc(O)c(O)c2)oc2cc(O)cc(O)c12` [Quercetin, 3,3',4',5,7-Pentahydroxyflavone], the shift in melting temperature (ΔTm) at 10 µM turned out to be 10.6 °C.
On the same count and under the same terms, next, `Cn1cc(C=C2C(=O)Nc3cccnc32)c2ccccc21` [GW441756X]: 2.82 °C; `CS(=O)(=O)CCN(CC#N)Cc1ccc(-c2ccc3ncnc(Nc4ccc(OCc5cccc(F)c5)c(Cl)c4)c3c2)o1` [GW616030X]: 3.29 °C.
Same read-out and setting: next, `COC(=O)Nc1nc2ccc(S(=O)(=O)c3ccc(NC(=O)Nc4cc(C(F)(F)F)ccc4F)cc3)cc2[nH]1` [GW680908A]: 4.07 °C; `CN(C)C(=O)O[C@@H]1CN[C@@H](C#Cc2cc3ncnc(Nc4ccc(OCc5cccc(F)c5)c(Cl)c4)c3s2)C1` [GSK238063A]: 2.93 °C; `CN1CCN(CCCNc2nc3ccc(Oc4ccc(NC(=O)Nc5cc(C(F)(F)F)ccc5F)cc4)cc3[nH]2)CC1` [GW700494A]: 3.97 °C.
Same read-out and setting: to `CC(=O)Nc1cccc(C#Cc2cncnc2Nc2ccc(OCc3cccc(F)c3)c(Cl)c2)c1` [GW703087X] belongs 3.36 °C.

Staying with this assay, now noted: read-out: ΔTm, primary screen, GRK5, 10 μM compound, 2 μM kinase, relative to DMSO control.
Consider `c1cc(-c2cnn3nc(N4CCOCC4)ccc23)nc(NC2CC2)n1` [GW708336X], for which the ΔTm at 10 µM worked out at 2.8 °C.
Still for that read-out and setting: to `Clc1ccc(CNc2nccc(-c3cnn4ncccc34)n2)cc1` [GW781673X] belongs 2.27 °C.

Values taken from publication PMC4301037, “Identification and Structure–Function Analysis of Subfamily Selective G Protein-Coupled Receptor Kinase Inhibitors” (ACS Chemical Biology, 2014).
